What was measured:
[1] = system: T1, HLA-A2.1; assay: Stabilization of cell surface HLA-A2.1 by peptide binding (reconstitution into empty MHC on RMA-S-HHD cells, FACS); format: cell-based, human; details: synthetic peptide 100 μM, FACS with W6/32 mAb
T1 construct: expressed in transfected cells; host or cells: RMA-S (murine TAP-2 deficient lymphoma, C57BL/6 origin)
Procedure: Synthetic peptides were added to 10^6 RMA-S-HHD cells to a concentration of 100 μM followed by incubation for two hours at 26° C. and two hours at 37° C. […] The HLA-A2.1 peptide derived from gp100 served as a positive control and unloaded RMA-S-HHD cells as a negative control.
RMA-S-HHD cells were washed three times with PBS followed by incubation overnight in FCS-free IMDM medium at 26° C. Synthetic peptides were added to 10^6 cells at a concentration of 100 μM. The cells were incubated for two hours at 26° C. followed by two hours at 37° C. […] (Sigma).
Another approach to ascertain that the identified peptides were indeed MHC bound peptide antigens, their capacity to bind tightly and stabilize cell surface HLA-A2.1 was tested by reconstitution into empty MHC on the surface of RMA-S-HHD cells.

[2] = system: EL4-HHD cells loaded with the peptides; assay: Cytotoxic T lymphocytes assay after immunization of HHD transgenic mice with peptide-loaded cells; format: in vivo; details: compared to negative control peptide ALLCAPSLL; effector-to-target ratio of 50:1 shown
Source text: Cells were loaded separately with individual peptides, washed and injected in four groups: 1-p1028 (SEQ ID NO:13) alone, 2- p1258 (SEQ ID NO:24) alone, 3-pool of peptides: p913 (SEQ ID NO:5), p958 (SEQ ID NO:9), p989 of CD59 (SEQ ID NO:11) and p989 of FLI (SEQ ID NO:12), 4- peptides p1031 (SEQ ID NO:14), p1121 (SEQ ID NO:22) and p1068 (SEQ ID NO:16). Unloaded EL4-HHD or targets cells not loaded with the peptides were used as negative controls. An effector-to-target ratio of 50:1 is shown,
Transgenic mice expressing a single chain HLA-A2.1/Db-β2 m which are double knockout for H-2 Db and for β2 m (HHD mice) were immunized four times intra-peritoneally at 7-day interval with 2×10^6 irradiated (5,000 rad) RMA-S-HHD-B7.1 cells loaded for two hours at 26° C. followed by two hours at 37° C. with 100 μM of the synthetic peptides. Ten days after the last immunization the spleens were removed from the vaccinated mice. Splenocytes were re-stimulated with 100 μM of synthetic peptides for five days. Viable lymphocytes were separated by lympholyte-M (Cadarlane, Hornby, Canada) and resuspended in RPMI-HEPES. Cytotoxic activity was measured as in [26] by admixing the lymphocytes at different ratios with 5×10^3 EL4-HHD cells grown in medium containing ^35S methionine and then loaded wit the synthetic peptides.
To further evaluate the affinity of the peptides to the HLA-A2 and to obtain some insight into their immunogenic potential, selected peptides were tested for their ability to induce an immune response in HLA-A2 transgenic mice. It was assumed that only peptides that could be effectively presented and remain tightly bound to the cells would be capable of inducing an immune response in these mice. The same synthetic peptides that were used for the FACS analysis were used for immunization of the HHD transgenic mice, which express the human HLA-A2.1/Db-β2 m single chain. To immunize the mice, the HHD culture cells were loaded with the different peptides and then injected to the HHD mice. The immune response in the mice was followed by the appearance of CTLs specific for these peptides. Some of the peptides were indeed capable of inducing an immune response, which both authenticate them as MHC bound peptides and gives an indication about their immunogenic potential.

T1 sequence (P61769 with tags, fused parts or gaps): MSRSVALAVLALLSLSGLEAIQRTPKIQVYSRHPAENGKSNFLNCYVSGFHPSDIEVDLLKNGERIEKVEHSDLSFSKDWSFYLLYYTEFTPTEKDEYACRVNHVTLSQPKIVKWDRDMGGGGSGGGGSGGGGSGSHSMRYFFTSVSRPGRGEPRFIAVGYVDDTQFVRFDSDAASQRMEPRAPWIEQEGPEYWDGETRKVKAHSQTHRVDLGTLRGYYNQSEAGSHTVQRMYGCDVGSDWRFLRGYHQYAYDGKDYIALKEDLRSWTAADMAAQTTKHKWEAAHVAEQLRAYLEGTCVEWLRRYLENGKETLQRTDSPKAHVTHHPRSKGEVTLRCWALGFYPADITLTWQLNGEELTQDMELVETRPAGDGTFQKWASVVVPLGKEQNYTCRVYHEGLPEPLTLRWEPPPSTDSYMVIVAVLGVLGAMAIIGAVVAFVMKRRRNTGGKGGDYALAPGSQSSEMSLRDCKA

GVYDGEEHSV
binding affinity to HLA-A2 / stabilization of empty MHC on the surface of RMA-S-HHD cells [1]: normal

TLWVDPYEV
lysis of peptide-loaded EL4-HHD cells by CTLs from immunized HHD mice [2]: significant lysis

FLFDGSPTYVL
lysis of peptide-loaded EL4-HHD cells by CTLs from immunized HHD mice [2]: significant lysis

ALSDHHIYL
lysis of peptide-loaded EL4-HHD cells by CTLs from immunized HHD mice [2]: significant lysis

GLIEKNIEL
lysis of peptide-loaded EL4-HHD cells by CTLs from immunized HHD mice [2]: significant lysis
